Laboratory results published in patent US11649255B2, “Indazoles as hematopoietic progenitor kinase 1 (HPK1) inhibitors and methods using same” (1st Biotherapeutics, Inc., priority 2020, dated 2023).
Like-named read-outs stand apart in the source and are kept apart here.

What was measured:
recombinant human HPK1 = recombinant human HPK1 (Homo sapiens (Human), UniProt Q92918); experiment: HPK1 kinase assay (ADP-Glo); assay type: biochemical; conditions: 25 μM ATP, MBP substrate
Method in brief: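 Activity was read as ADP formed, detected by ADP-Glo luminescence after the reaction of 5 ng recombinant human HPK1 with MBP and ATP (stocks 0.5 μg/μl and 25 μM) for 40 min at 30 °C. Buffer was Tris pH 7.5 with MgCl2, BSA and DTT, with compound in 0.5% DMSO. IC50 came from inhibition curves.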

[1] = system: human peripheral blood pan T cells; experiment: IFNγ and IL-2 analysis of human peripheral pan T cells; assay type: cell-based; conditions: T-cell, CD3/CD28 bead stimulation, 100 nM Prostaglandin E2, 24 hr
Method: IFNγ and IL-2 Analysis of Human Peripheral Pan T Cells
Human peripheral blood pan T cells were purchased from STEMCELL™ Technologies Inc. Human peripheral blood pan T cells were thawed and suspended in DMEM media (10% FBS and 10 Penicillin/Streptomycin). 8×10^4 T cells were seeded in 96-well plate and incubated with various concentration of compounds and 100 nM Prostaglandin E2 for 1 hr. T cells were stimulated with Dynabeads Human T-Activator CD3/CD28 (Life Technologies) at a 1:3 cells: beads ratio. […] Data were analyzed with an MESO Quickplex SQ120 (Mesoscale Discovery).
In Table 3, the values represent + for >1000 nM, ++ 200-1,000 nM, +++ for <200 nM and − for not determined.

[2] = IFNγ secretion, read-out: IFNγ (EC50)
[3] = IL-2 secretion, read-out: IL-2 (EC50)

Sequence of recombinant human HPK1 (Q92918 whole entry): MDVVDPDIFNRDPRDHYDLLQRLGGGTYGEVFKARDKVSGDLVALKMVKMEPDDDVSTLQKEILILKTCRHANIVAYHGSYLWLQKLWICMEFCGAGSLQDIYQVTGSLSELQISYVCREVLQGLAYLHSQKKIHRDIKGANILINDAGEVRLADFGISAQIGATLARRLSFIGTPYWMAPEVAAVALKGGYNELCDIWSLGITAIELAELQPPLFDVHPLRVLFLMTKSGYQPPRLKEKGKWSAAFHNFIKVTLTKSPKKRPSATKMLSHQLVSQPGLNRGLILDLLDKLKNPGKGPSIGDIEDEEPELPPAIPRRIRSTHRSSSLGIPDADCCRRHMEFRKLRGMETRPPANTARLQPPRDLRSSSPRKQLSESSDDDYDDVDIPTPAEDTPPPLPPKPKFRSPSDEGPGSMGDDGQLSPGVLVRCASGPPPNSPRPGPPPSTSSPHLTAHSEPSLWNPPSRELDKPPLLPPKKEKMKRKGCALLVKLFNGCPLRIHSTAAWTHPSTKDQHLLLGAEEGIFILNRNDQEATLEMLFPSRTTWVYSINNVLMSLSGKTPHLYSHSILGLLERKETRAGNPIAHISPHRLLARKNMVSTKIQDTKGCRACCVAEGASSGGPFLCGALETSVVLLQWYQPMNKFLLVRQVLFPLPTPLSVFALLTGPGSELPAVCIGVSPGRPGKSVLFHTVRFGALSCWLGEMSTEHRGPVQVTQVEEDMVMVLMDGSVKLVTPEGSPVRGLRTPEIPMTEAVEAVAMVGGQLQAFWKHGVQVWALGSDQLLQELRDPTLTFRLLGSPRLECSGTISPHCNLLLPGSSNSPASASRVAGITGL

IC50 (recombinant human HPK1) [nM] | EC50 [1, 2] [nM] | EC50 [1, 3] [nM] | SMILES
< 100 | 200 to 1000 | > 1000 | Cc1c(F)c(N(C)C)c2[nH]ncc2c1-c1ccc2nc(NC(=O)[C@@H]3C[C@@H]3F)sc2c1 [Example 104, (1S,2S)-N-(6-(7-(dimethylamino)-6-fluoro-5-methyl-1H-indazol-4-yl)benzo[d]thiazol-2-yl)-2-fluorocyclopropane-1-carboxamide]
< 100 | 200 to 1000 | > 1000 | CSc1c(F)cc2[nH]ncc2c1-c1ccc2nc(NC(=O)[C@@H]3C[C@@H]3F)sc2c1 [Example 105, (1S,2S)-2-fluoro-N-(6-(6-fluoro-5-(methylthio)-1H-indazol-4-yl)benzo[d]thiazol-2-yl)cyclopropane-1-carboxamide]
< 100 | 200 to 1000 | – | CCOc1c(F)c(CC)c(-c2ccc3nc(NC(=O)[C@@H]4C[C@@H]4F)sc3c2)c2cn[nH]c12 [Example 107, (1S,2S)-N-(6-(7-ethoxy-5-ethyl-6-fluoro-1H-indazol-4-yl)benzo[d]thiazol-2-yl)-2-fluorocyclopropane-1-carboxamide]
< 100 | < 200 | – | CSc1c(F)c(N(C)C)c2[nH]ncc2c1-c1ccc2nc(NC(=O)[C@@H]3C[C@@H]3F)sc2c1 [Example 110, (1S,2S)-N-(6-(7-(dimethylamino)-6-fluoro-5-(methylthio)-1H-indazol-4-yl)benzo[d]thiazol-2-yl)-2-fluorocyclopropane-1-carboxamide]
< 100 | < 200 | – | CCOc1c(F)c(SC)c(-c2ccc3nc(NC(=O)[C@@H]4C[C@@H]4F)sc3c2)c2cn[nH]c12 [Example 118, (1S,2S)-N-(6-(7-ethoxy-6-fluoro-5-(methylthio)-1H-indazol-4-yl)benzo[d]thiazol-2-yl)-2-fluorocyclopropane-1-carboxamide]
< 100 | 200 to 1000 | > 1000 | CC(=O)N(C)c1c(F)c(Cl)c(-c2ccc3nc(NC(=O)[C@@H]4C[C@@H]4F)sc3c2)c2cn[nH]c12 [Example 123, (1S,2S)-N-(6-(5-chloro-6-fluoro-7-(N-methylacetamido)-1H-indazol-4-yl)benzo[d]thiazol-2-yl)-2-fluorocyclopropane-1-carboxamide]
< 100 | < 200 | – | CN(C)C(=O)c1c(F)c(Cl)c(-c2ccc3nc(NC(=O)[C@@H]4C[C@@H]4F)sc3c2)c2cn[nH]c12 [Example 125, 5-chloro-6-fluoro-4-(2-((1S,2S)-2-fluorocyclopropane-1-carboxamido)benzo[d]thiazol-6-yl)-N,N-dimethyl-1H-indazole-7-carboxamide]
< 100 | < 200 | > 1000 | Cc1c(F)c(C(=O)N(C)C)c2[nH]ncc2c1-c1ccc2nc(NC(=O)[C@@H]3C[C@@H]3F)sc2c1 [Example 134, 6-fluoro-4-(2-((1S,2S)-2-fluorocyclopropane-1-carboxamido)benzo[d]thiazol-6-yl)-N,N,5-trimethyl-1H-indazole-7-carboxamide]
< 100 | 200 to 1000 | 200 to 1000 | CCc1c(F)cc2[nH]ncc2c1-c1ccc2nc(NC(=O)[C@@H]3C[C@@H]3F)sc2n1 [Example 152, (1S,2S)—N-(5-(5-ethyl-6-fluoro-1H-indazol-4-yl)thiazolo[5,4-b]pyridin-2-yl)-2-fluorocyclopropane-1-carboxamide]
< 100 | 200 to 1000 | 200 to 1000 | CSc1c(F)cc2[nH]ncc2c1-c1ccc2nc(NC(=O)[C@@H]3C[C@@H]3F)sc2n1 [Example 156, (1S,2S)-2-fluoro-N-(5-(6-fluoro-5-(methylthio)-1H-indazol-4-yl)thiazolo[5,4-b]pyridin-2-yl)cyclopropane-1-carboxamide]
< 100 | 200 to 1000 | – | CCc1c(F)c(N(C)C)c2[nH]ncc2c1-c1ccc2nc(NC(=O)[C@@H]3C[C@@H]3F)sc2n1 [Example 161, (1S,2S)-N-(5-(7-(dimethylamino)-5-ethyl-6-fluoro-1H-indazol-4-yl)thiazolo[5,4-b]pyridin-2-yl)-2-fluorocyclopropane-1-carboxamide]
< 100 | 200 to 1000 | – | CCc1c(F)c(SC)c2[nH]ncc2c1-c1ccc2nc(NC(=O)[C@@H]3C[C@@H]3F)sc2n1 [Example 162, (1S,2S)-N-(5-(5-ethyl-6-fluoro-7-(methylthio)-1H-indazol-4-yl)thiazolo[5,4-b]pyridin-2-yl)-2-fluorocyclopropane-1-carboxamide]
< 100 | 200 to 1000 | > 1000 | CCc1c(F)c(SCC(=O)NC)c2[nH]ncc2c1-c1ccc2nc(NC(=O)[C@@H]3C[C@@H]3F)sc2n1 [Example 167, (1S,2S)-N-(5-(5-ethyl-6-fluoro-7-((2-(methylamino)-2-oxoethyl)thio)-1H-indazol-4-yl)thiazolo[5,4-b]pyridin-2-yl)-2-fluorocyclopropane-1-carboxamide]
< 100 | 200 to 1000 | > 1000 | Cc1c(F)c(N(C)C)c2[nH]ncc2c1-c1ccc2nc(NC(=O)[C@@H]3C[C@@H]3F)sc2n1 [Example 169, (1S,2S)-N-(5-(7-(dimethylamino)-6-fluoro-5-methyl-1H-indazol-4-yl)thiazolo[5,4-b]pyridin-2-yl)-2-fluorocyclopropane-1-carboxamide]
< 100 | 200 to 1000 | > 1000 | CSc1c(F)c(SC)c2[nH]ncc2c1-c1ccc2nc(NC(=O)[C@@H]3C[C@@H]3F)sc2n1 [Example 170, (1S,2S)-2-fluoro-N-(5-(6-fluoro-5,7-bis(methylthio)-1H-indazol-4-yl)thiazolo[5,4-b]pyridin-2-yl)cyclopropane-1-carboxamide]
< 100 | 200 to 1000 | – | CN(C)c1c(F)c(Cl)c(-c2ccc3nc(NC(=O)[C@@H]4C[C@@H]4F)sc3n2)c2cn[nH]c12 [Example 172, (1S,2S)-N-(5-(5-chloro-7-(dimethylamino)-6-fluoro-1H-indazol-4-yl)thiazolo[5,4-b]pyridin-2-yl)-2-fluorocyclopropane-1-carboxamide]
< 100 | 200 to 1000 | – | CSc1c(F)c(Cl)c(-c2ccc3nc(NC(=O)[C@@H]4C[C@@H]4F)sc3n2)c2cn[nH]c12 [Example 174, (1S,2S)-N-(5-(5-chloro-6-fluoro-7-(methylthio)-1H-indazol-4-yl)thiazolo[5,4-b]pyridin-2-yl)-2-fluorocyclopropane-1-carboxamide]
< 100 | < 200 | – | CCOc1c(F)c(C)c(-c2ccc3nc(NC(=O)[C@@H]4C[C@@H]4F)sc3n2)c2cn[nH]c12 [Example 175, (1S,2S)-N-(5-(7-ethoxy-6-fluoro-5-methyl-1H-indazol-4-yl)thiazolo[5,4-b]pyridin-2-yl)-2-fluorocyclopropane-1-carboxamide]
< 100 | < 200 | – | CCOc1c(F)c(SC)c(-c2ccc3nc(NC(=O)[C@@H]4C[C@@H]4F)sc3n2)c2cn[nH]c12 [Example 184, (1S,2S)-N-(5-(7-ethoxy-6-fluoro-5-(methylthio)-1H-indazol-4-yl)thiazolo[5,4-b]pyridin-2-yl)-2-fluorocyclopropane-1-carboxamide]
< 100 | 200 to 1000 | > 1000 | CN(C)C(=O)c1c(F)c(Cl)c(-c2ccc3nc(NC(=O)[C@@H]4C[C@@H]4F)sc3n2)c2cn[nH]c12 [Example 193, 5-chloro-6-fluoro-4-(2-((1S,2S)-2-fluorocyclopropane-1-carboxamido)thiazolo[5,4-b]pyridin-5-yl)-N,N-dimethyl-1H-indazole-7-carboxamide]
< 100 | 200 to 1000 | – | CSc1c(F)c(N(C)C)c2[nH]ncc2c1-c1ccc2nc(NC(=O)[C@@H]3C[C@@H]3F)sc2n1 [Example 194, (1S,2S)-N-(5-(7-(dimethylamino)-6-fluoro-5-(methylthio)-1H-indazol-4-yl)thiazolo[5,4-b]pyridin-2-yl)-2-fluorocyclopropane-1-carboxamide]
< 100 | 200 to 1000 | – | Cc1c(F)c(C)c2[nH]ncc2c1-c1ccc2nc(NC(=O)[C@@H]3C[C@@H]3F)sc2n1 [Example 199, (1S,2S)-2-fluoro-N-(5-(6-fluoro-5,7-dimethyl-1H-indazol-4-yl)thiazolo[5,4-b]pyridin-2-yl)cyclopropane-1-carboxamide]
< 100 | < 200 | 200 to 1000 | CN(C)c1c(F)c(Cl)c(-c2ccc3nc(NC(=O)[C@@H]4C[C@@H]4F)cn3c2)c2cn[nH]c12 [Example 258, (1S,2S)—N-(6-(5-chloro-7-(dimethylamino)-6-fluoro-1H-indazol-4-yl)imidazo[1,2-a]pyridin-2-yl)-2-fluorocyclopropane-1-carboxamide]
< 100 | < 200 | 200 to 1000 | CCc1c(F)c(N(C)C)c2[nH]ncc2c1-c1ccc2nc(NC(=O)[C@@H]3C[C@@H]3F)cn2c1 [Example 291, (1S,2S)-N-(6-(7-(dimethylamino)-5-ethyl-6-fluoro-1H-indazol-4-yl)imidazo[1,2-a]pyridin-2-yl)-2-fluorocyclopropane-1-carboxamide]
– | 200 to 1000 | 200 to 1000 | CSc1c(F)c(C)c(-c2ccn3nc(NC(=O)[C@H]4C[C@H]4F)cc3c2)c2cn[nH]c12 [Example 574, (1R,2R)-2-fluoro-N-(5-(6-fluoro-5-methyl-7-(methylthio)-1H-indazol-4-yl)pyrazolo[1,5-a]pyridin-2-yl)cyclopropane-1-carboxamide]
